In US20170051149A1, “AZOARYLS AS REVERSIBLY MODULATABLE TUBULIN INHIBITORS” (ECOLE NORMALE SUPERIEURE DE LYON, priority 2014, published 2017):
Where two headings read alike, the source gives them in different places.

Columns and labels:
Type in all cases: cell-based
[1] = test system: HeLa cells; experiment: nuclear fragmentation (subG1, Nicoletti), induction of apoptosis; settings: 30 h
Experimental: (§1) Different cell types, including MDA-MB-231, Jurkat, HeLa and HepG2 cells, were treated with indicated concentrations of compound I.1 and exposed to a 390 nm toxic regime, a rescue regime with both 390 nm and 515 nm light, or kept in the dark. Following the treatment, cells were stained with PI and the percentage of cells containing a hypodiploid amount of DNA (subG1 phase of cell cycle), was determined. Briefly, prior to analysis, cells were harvested on ice and incubated in a hypotonic buffer [0.1% sodium citrate, 0.1% Triton X-100 and 50 μg/mL propidium iodide (PI)] for 30 min at 4° C. Following the PI staining cells were analysed by flow cytometry using FACSCalibur flow cytometer (Becton Dickinson, Heidelberg, Germany) and Cell Quest Pro Software (Becton Dickinson).

[2] = test system: HepG2 cells; experiment: as above; settings: 48 h
Experimental: as §1

[3] = test system: Jurkat cells; experiment: as above; settings: 48 h
Experimental: as §1

[4] = test system: MDA-MB-231 cells; experiment: as above; settings: for EC50: Homo sapiens, MDA-MB-231, 48 h, read-out: EC50, 50% increase of the subG1 population percentage
Experimental: as §1

[5] = test system: MDA-MB-231 cells; experiment: in cellulo tubulin imaging, immunostaining of microtubule cytoskeleton; settings: 20 h; for effect on microtubule structure: 390 nm regimen (200 ms every 2 min)
Experimental: In order to investigate the influence of compound I.1 on microtubule structure in cellulo, immunostaining of the microtubule cytoskeleton in MDA-MB-231 cells was performed. Cells were treated with compound I.1 and then kept in dark conditions, or exposed to 390 nm light (200 ms every 2 min), or exposed to a rescue protocol with sequential pulses of 390 nm light (200 ms every 2 min) then immediately 505 nm (600 ms every 2 min). After 20 h of treatment cells were fixed, stained and subjected to confocal microscopy.
Briefly, prior to analysis, cells were washed with pre-warmed PBS then cell extraction buffer (80 mM piperazine-N,N′-bis(2-ethanesulfonic acid) [abbreviated PIPES], 1 mM MgCl2, 5 mM EGTA-K and 0.5% Triton X-100, at pH 6.8) was added to remove monomeric and dimeric tubulin subunits. After 30 s of extraction, cells were fixed for 10 min with 0.5% glutaraldehyde. Following glutaraldehyde quenching with 0.1% NaBH4 in PBS for 7 min, coverslips were blocked with PBS containing 0.2% BSA (bovine serum albumin). Immunostaining was performed using anti-α-tubulin antibody (ab18251) and the AlexaFluor 488 secondary antibody (A 11008), purchased from Abcam (Cambridge, UK) and Invitrogen (Darmstadt, Germany), respectively. Hoechst 33342 (bisbenzimide), purchased from Sigma-Aldrich (catalogue number B2261; Taufkirchen, Germany), was used at a concentration of 1 ug/ml for nuclear staining. Cells were mounted with PermaFluor™ mounting medium (Beckman Coulter) and analyzed with a Zeiss LSM 510 Meta confocal microscope (Jena, Germany). Acquired images were processed using the ImageJ program (National Institutes of Health) and representative images are collected in FIG. 7.

With COc1ccc(N=Nc2cc(OC)c(OC)c(OC)c2)cc1O [I.1, 2-methoxy-5-((3,4,5-trimethoxyphenyl)diazenyl)phenol] the “mean % subG1 phase” value ([1]; 200 nM, 390 nm light (1 s pulses every 15 min)) was 2.4%, the “mean % subG1 phase” value ([1]; 200 nM, dark) was 1.8% and the “mean % subG1 phase” value ([1]; 600 nM, 390 nm light (1 s pulses every 15 min)) was 6.2%. The “mean % subG1 phase” value ([1]; 600 nM, dark) was 2.3%, the “mean % subG1 phase” value ([1]; 1.5 μM, 390 nm light (1 s pulses every 15 min)) was 16.1% and the “mean % subG1 phase” value ([1]; 1.5 μM, dark) was 2.9%. The “mean % subG1 phase” value ([1]; 5 μM, 390 nm light (1 s pulses every 15 min)) was 12.8%, the “mean % subG1 phase” value ([1]; 5 μM, dark) was 3.2% and the “mean % subG1 phase” value ([2]; 100 nM, HepG2, 390 nm light (250 ms pulses every 15 s)) was 5.4%. The “mean % subG1 phase” value ([2]; 100 nM, HepG2, dark) was 2.5%, the “mean % subG1 phase” value ([2]; 600 nM, HepG2, 390 nm light (250 ms pulses every 15 s)) was 5.2% and the “mean % subG1 phase” value ([2]; 600 nM, HepG2, dark) was 3.1%. For the same molecule, the “mean % subG1 phase” value ([2]; 1 μM, HepG2, 390 nm light (250 ms pulses every 15 s)) was 4.6%, the “mean % subG1 phase” value ([2]; 1 μM, HepG2, dark) was 2.3% and the “mean % subG1 phase” value ([2]; 3 μM, HepG2, 390 nm light (250 ms pulses every 15 s)) was 6.5%. For the same molecule, the “mean % subG1 phase” value ([2]; 3 μM, HepG2, dark) was 1.9%, the “mean % subG1 phase” value ([2]; 10 μM, HepG2, 390 nm light (250 ms pulses every 15 s)) was 14% and the “mean % subG1 phase” value ([2]; 10 μM, HepG2, dark) was 2.8%. The “mean % subG1 phase” value ([3]; 5 nM, 390 nm (350 ms pulses every 5 min)) was 2.7%, the “mean % subG1 phase” value ([3]; 5 nM, dark) was 3.0% and the “mean % subG1 phase” value ([3]; 50 nM, 390 nm (350 ms pulses every 5 min)) was 4.9%. For the same molecule, the “mean % subG1 phase” value ([3]; 50 nM, dark) was 3.4%, the “mean % subG1 phase” value ([3]; 100 nM, 390 nm (350 ms pulses every 5 min)) was 9.1% and the “mean % subG1 phase” value ([3]; 100 nM, dark) was 3.5%. For the same molecule, the “mean % subG1 phase” value ([3]; 150 nM, 390 nm (350 ms pulses every 5 min)) was 18.5%, the “mean % subG1 phase” value ([3]; 150 nM, dark) was 3.3% and the “mean % subG1 phase” value ([3]; 200 nM, 390 nm (350 ms pulses every 5 min)) was 49.7%. For the same molecule, the “mean % subG1 phase” value ([3]; 200 nM, dark) was 3.0%, the “mean % subG1 phase” value ([3]; 400 nM, 390 nm (350 ms pulses every 5 min)) was 88.5% and the “mean % subG1 phase” value ([3]; 400 nM, dark) was 4.4%. The “mean % subG1 phase” value ([3]; 800 nM, 390 nm (350 ms pulses every 5 min)) was 89.5%, the “mean % subG1 phase” value ([3]; 800 nM, dark) was 5.5% and the “mean % subG1 phase” value ([3]; 1.5 μM, 390 nm (350 ms pulses every 5 min)) was 89.6%. The “mean % subG1 phase” value ([3]; 1.5 μM, dark) was 7.9%, the “mean % subG1 phase” value ([3]; 5 μM, 390 nm (350 ms pulses every 5 min)) was 91.0% and the “mean % subG1 phase” value ([3]; 5 μM, dark) was 12.0%. The “mean % subG1 phase” value ([4]; 10 nM, 390 nm (350 ms every 5 min), 48 h) was 3.6%, the “mean % subG1 phase” value ([4]; 10 nM, Dark, 48 h) was 6.7% and the “mean % subG1 phase” value ([4]; 10 nM, MDA-MB-231, 390 nm only (150 ms pulse every 30 s), 48 h) was 0.3%. For the same molecule, the “mean % subG1 phase” value ([4]; 10 nM, MDA-MB-231, rescue protocol 390 nm + 515 nm (500 ms), 48 h) was 0.3%, the “mean % subG1 phase” value ([4]; 100 nM, 390 nm (350 ms every 5 min), 48 h) was 3.9% and the “mean % subG1 phase” value ([4]; 100 nM, MDA-MB-231, 390 nm only (150 ms pulse every 30 s), 48 h) was 0.3%. The “mean % subG1 phase” value ([4]; 100 nM, MDA-MB-231, dark, 48 hours) was 2.1%, the “mean % subG1 phase” value ([4]; 100 nM, MDA-MB-231, rescue protocol 390 nm + 515 nm (500 ms), 48 h) was 0.4% and the “mean % subG1 phase” value ([4]; 100 nM, dark, 48 h) was 6.0%. For the same molecule, the “mean % subG1 phase” value ([4]; 400 nM, 390 nm (350 ms every 5 min), 48 h) was 4.2%, the “mean % subG1 phase” value ([4]; 400 nM, MDA-MB-231, 390 nm only (150 ms pulse every 30 s), 48 h) was 14.0% and the “mean % subG1 phase” value ([4]; 400 nM, MDA-MB-231, rescue protocol 390 nm + 515 nm (500 ms), 48 h) was 1.7%. The “mean % subG1 phase” value ([4]; 400 nM, dark, 48 h) was 3.3%, the “mean % subG1 phase” value ([4]; 600 nM, 390 nm (350 ms every 5 min), 48 h) was 16.8% and the “mean % subG1 phase” value ([4]; 600 nM, MDA-MB-231, 390 nm only (150 ms pulse every 30 s), 48 h) was 22.9%. For the same molecule, the “mean % subG1 phase” value ([4]; 600 nM, MDA-MB-231, rescue protocol 390 nm + 515 nm (500 ms), 48 h) was 5.4%, the “mean % subG1 phase” value ([4]; 600 nM, dark, 48 h) was 3.9% and the “mean % subG1 phase” value ([4]; 800 nM, 390 nm (350 ms every 5 min), 48 h) was 32.1%. For the same molecule, the “mean % subG1 phase” value ([4]; 800 nM, Dark, 48 h) was 3.0%, the “mean % subG1 phase” value ([4]; 800 nM, MDA-MB-231, 390 nm only (150 ms pulse every 30 s), 48 h) was 19.4% and the “mean % subG1 phase” value ([4]; 800 nM, MDA-MB-231, rescue protocol 390 nm + 515 nm (500 ms), 48 h) was 11.7%. The “mean % subG1 phase” value ([4]; 1 μM, 390 nm (350 ms every 5 min), 48 h) was 55.7%, the “mean % subG1 phase” value ([4]; 1 μM, MDA-MB-231, 390 nm only (150 ms pulse every 30 s), 48 h) was 22.5% and the “mean % subG1 phase” value ([4]; 1 μM, MDA-MB-231, dark, 48 hours) was 2.0%. The “mean % subG1 phase” value ([4]; 1 μM, MDA-MB-231, rescue protocol 390 nm + 515 nm (500 ms), 48 h) was 15.3%, the “mean % subG1 phase” value ([4]; 1 μM, dark, 48 h) was 3.1% and the “mean % subG1 phase” value ([4]; 1.2 μM, 390 nm (350 ms every 5 min), 48 h) was 56.6%. For the same molecule, the “mean % subG1 phase” value ([4]; 1.2 μM, DARK, 48 h) was 3.6%, the “mean % subG1 phase” value ([4]; 1.5 μM, 390 nm (350 ms every 5 min), 48 h) was 76.1% and the “mean % subG1 phase” value ([4]; 1.5 μM, DARK, 48 h) was 3.3%. The “mean % subG1 phase” value ([4]; 2 μM, MDA-MB-231, 390 nm only (150 ms pulse every 30 s), 48 h) was 35.4%, the “mean % subG1 phase” value ([4]; 2 μM, MDA-MB-231, rescue protocol 390 nm + 515 nm (500 ms), 48 h) was 25.0% and the “mean % subG1 phase” value ([4]; 3 μM, 390 nm (350 ms every 5 min), 48 h) was 79.0%. For the same molecule, the “mean % subG1 phase” value ([4]; 3 μM, dark, 48 h) was 6.0%, the “mean % subG1 phase” value ([4]; 6 μM, 390 nm (350 ms every 5 min), 48 h) was 83.5% and the “mean % subG1 phase” value ([4]; 6 μM, DARK, 48 h) was 3.9%. The “mean % subG1 phase” value ([4]; 10 μM, MDA-MB-231, dark, 48 hours) was 2.0%, the “mean % subG1 phase” value ([4]; 15 μM, 390 nm (350 ms every 5 min), 48 h) was 83.7% and the “mean % subG1 phase” value ([4]; 15 μM, DARK, 48 h) was 5.4%. For the same molecule, the “mean % subG1 phase” value ([4]; 50 μM, MDA-MB-231, dark, 48 hours) was 4.5%, the “mean % subG1 phase” value ([4]; 75 μM, MDA-MB-231, dark, 48 hours) was 7.9% and the “mean % subG1 phase” value ([4]; 85 μM, MDA-MB-231, dark, 48 hours) was 12.7%. The “mean % subG1 phase” value ([4]; 100 μM, MDA-MB-231, dark, 48 hours) was 26.8%, the “mean % subG1 phase” value ([4]; 125 μM, MDA-MB-231, dark, 48 hours) was 51.1% and the “mean % subG1 phase” value ([4]; 150 μM, MDA-MB-231, dark, 48 hours) was 92.2%. For the same molecule, the “mean % subG1 phase” value ([4]; 175 μM, MDA-MB-231, dark, 48 hours) was 95.7%, the “mean % subG1 phase” value ([4]; 200 μM, MDA-MB-231, dark, 48 hours) was 95.5% and the EC50 ([4]; 390 nm regimen, 48 h) was ~1 µM. For the same molecule, the EC50 ([4]; in the dark, 48 h) was ~120 µM, the “effect on microtubule structure” value ([5]; 1.5 μM) was “degradation of the microtubule cytoskeleton” and the “effect on microtubule structure” value ([5]; 4 μM) was “complete microtubule breakdown plus fragmentation of the nuclei”. For the same molecule, the “nuclear fragmentation and microtubule destruction” value ([5]; kept in the dark) was “not observed” and the “effect of rescue protocol on signs of cytotoxic effects” value ([5]; rescue: 390 nm (200 ms) then 505 nm (600 ms) every 2 min) was “dose-dependent reduction of the signs of cytotoxic effects”.
